Assay results reported in patent publication US11938218B2, “High density peptide polymers” (The Regents of the University of California, priority 2014, dated 2024).
Ends that are not written are not given here. * marks the point of attachment. NorAha = N-(hexanoic acid)-cis-5-norbornene-exo-dicarboximide, O=C1[C@@H]2[C@H](C(=O)N1CCCCCC(=O)*)[C@H]1C=C[C@@H]2C1; fluorescein = 5(6)-carboxyfluorescein

Columns and labels:
[1] = system: HeLa cells; experiment: Cellular uptake in HeLa cells by flow cytometry (Tat, Arg8, guanidinium materials and controls); assay type: cell-based; conditions: 30 min incubation, DMEM with 10% FBS
[2] = system: HeLa cells; experiment: CellTiter-Blue cell viability assay, 72 hrs; conditions: for LD50: data fit to the Hill equation
Experimental: The cytotoxicity of materials was assessed using the CellTiter-Blue® assay (Promega, cat #G8081), which measures the metabolic reduction of resazurin to resorufin via fluorescence. For these studies, HeLa cells were plated at a density of 3,500 cells per well of a 96-well plate 18 hrs prior to treatment. Materials dissolved in DPBS at 10× the desired concentrations were added to the wells along with a 10% DMSO positive control. Cells were incubated for 72 hrs at 37° C. Note that concentration for all toxicity measurements is with respect to peptide concentration to ensure that all peptides and polymers are fairly compared with respect to their therapeutic components. […] The medium was removed and 80 μL of fresh medium lacking phenol red was added. To this was added 20 μL of the CellTiter-Blue® reagent and the cells were then incubated for 2 hrs prior to measuring fluorescence using 560 nm excitation and 590 nm emission. The fluorescence measurements were corrected for background fluorescence from the CellTiter-Blue® reagent by subtracting the fluorescence reading of wells treated with the reagent in the absence of cells. Fluorescence values were then referenced as a percentage of the value obtained for the DPBS vehicle control.

[3] = system: HeLa cells; experiment: Cellular uptake in HeLa cells by flow cytometry (GSGSG-derived and KLA polymers); assay type: cell-based; conditions: 2.5 μM with respect to fluorophore, 30 min
Experimental: HeLa cells were plated at a density of 90,000 cells per well of a 24-well plate 18 hrs prior to treatment with the material of interest. Materials dissolved in Dulbecco's Phosphate Buffered Saline (DPBS without Ca2+ or Mg2+; Corning Cellgro, cat. #21-031-CM) at 10× the desired concentration (where concentration is with respect to fluorophore concentration to ensure propare comparison of each molecular transporter) were added to the wells and the plates were incubated for 30 min at 37° C. The medium was then removed and the cells were washed 2× with DPBS and then incubated 3× for five minutes each with heparin (0.5 mg/mL in DPBS; Affymetrix, cat. #16920) to remove any membrane-bound, non-internalized material, and finally rinsed again with DPBS. The cells were then trypsinized (0.25% trypsin in DPBS; Gibco Life Tech., cat. #15090-046) for 10 min, cold medium was added, and the cells were transferred to Eppendorfs. The suspended cells were centrifuged to pellets and then resuspended in a minimal amount of cold DPBS. Flow cytometry data (10,000 events on three separate cultures) was then acquired.

[4] = system: HeLa cells; experiment: Live-cell confocal microscopy (GSGSG-derived and KLA polymers); assay type: cell-based; conditions: 2.5 μM with respect to fluorophore
[5] = system: trypsin, chymotrypsin and Pronase; experiment: RP-HPLC analysis of CPP proteolysis (intact material after protease treatment); assay type: in vitro ADME; conditions: 1 μM protease, 20 min
Experimental: The extent of proteolytic degradation of the Tat peptide, polymer and particle by trypsin (Gibco Life Tech., cat. #15090-046), a-chymotrypsin (Fisher Scientific, cat. #ICN1522722) and Pronase (Roche, cat. #10165921001) was assessed by comparison of chromatograms in RP-HPLC. I n these experiments, the material at the indicated concentration was incubated with each protease (at 1 μM) for 20 min, and then the enzymes were heat denatured at 65° C. for 15 min, and the solution was immediately injected onto an analytical RP-HPLC. […] Note that the standard curves for the polymer and particle will be biased due to the fact that after cleavage, the polymer backbone and fluorophore should remain intact, and will comprise part of the measured peak area.
Tat-containing materials, at the same concentration used in flow cytometery and confocal microscopy studies described above (2.5 M), were challenged for 20 min with various proteases at high enzyme concentration (˜1 M) prior to determining the extent of proteolytic cleavage and residual bioactivity. Such activity was assayed by three separate methods: reverse-phase high-performance liquid chromatography (RP-HPLC), flow cytometry, and confocal microscopy. […] The bioactivity of enzymatically digested materials was then assessed in cellular assays by both flow cytometry and confocal microscopy.

[6] = molecular target: chymotrypsin (Bos taurus, UniProt P00766); experiment: Time course of chymotrypsin treatment assayed by RP-HPLC; conditions: after 20 minutes of incubation with chymotrypsin (1 μM)
[7] = system: CC(C)C[C@H](NC(=O)[C@H](Cc1c[nH]cn1)NC(=O)[C@H](C)NC(=O)[C@@H]1CCCN1C(=O)[C@H](CCCNC(=N)N)NC(=O)[C@H](CCC(=O)NCCNc1cccc2c(S(=O)(=O)O)cccc12)NC(=O)CN1C(=O)[C@@H]2[C@H](C1=O)[C@H]1C=C[C@@H]2C1)C(=O)N[C@@H](CCCNC(=N)N)C(=O)N[C@@H](CC(=O)O)C(=O)N[C@@H](CO)C(=O)NCC(=O)N[C@@H](CCCCNC(=O)c1ccc(N=Nc2ccc(N(C)C)cc2)cc1)C(=O)NCC(=O)N[C@@H](CO)C(=O)NCC(=O)N[C@@H](CO)C(=O)NCC(N)=O; experiment: purified protein, by the assay type; conditions: other: Michaelis-Menten plot, cleavage by MT1-MMP; pH 7.4
[8] = system: HeLa cells; experiment: Pharmacological and thermal probes of cellular uptake mechanisms by flow cytometry; assay type: cell-based; conditions: dynasore 80 μM, MβCD 9.5 mM, 4° C.
Experimental: HeLa cells were plated at a density of 90,000 cells per well of a 24-well plate 18 h prior to treatment. Materials dissolved in Dulbecco's Phosphate Buffered Saline (DPBS without Ca^2+ or Mg^2+; Corning Cellgro, cat. #21-031-CM) at 10× the desired concentration were added to the wells, and the plates were incubated for 30 min at 37° C. The medium was then removed, and the cells were washed twice with DPBS and then incubated three times for 5 min with heparin (0.5 mg/mL in DPBS; Affymetrix, cat. #16920), and finally rinsed again with DPBS. The cells were then trypsinized (0.25% trypsin; Gibco Life Tech., cat. #15090-046) for 10 min, cold medium was added, and the cells were transferred to Eppendorfs, centrifuged to pellets and then resuspended in a minimal amount of cold DPBS. Fluorescence activated cell sorting data (10000 events on three separate cultures) was acquired on an Accuri C6 flow cytometer set to default “3 blue 1 red” configuration with standard optics and slow fluidics (14 μL/min). […] The cells were then incubated, prepared and analyzed by flow cytometry as described above. […] Data is reported as the normalized mean fluorescence, which are the mean fluorescence yielded by the material/the mean fluorescence from the vehicle control. […]

[9] = 72 hrs, concentration with respect to peptide

Compound: Arg8 polymer: fluorescein end-labeled ROMP homopolymer of NorAha-Arg8 monomer, DP 8, deprotected (NorAha-RRRRRRRR-NH2; also: ROMP homopolymer, DP 8, fluorescein end label on polymer)
- cellular uptake by flow cytometry (in words) [1]: responses similar to those of the guanidinium polymer

Compound: KLA11 [KLA full length, m ~10]
- LD50 [2, 9]: 25 µM

Compound: KLAKLAKKLAKLAK (KLAKLAKKLAKLAK-NH2; also: fluorescein-lysine, position not given here) [KLA peptide, reference compound]
- cytotoxicity (in words) [2, 9]: no cytotoxicity was detected
- cellular uptake by flow cytometry (in words) [3]: indistinguishable from that of the vehicle control

Compound: KLA(fragment)11 (KLAKLAK; also: ROMP polymer, 11 repeats) [KLA fragment, m ~10]
- cytotoxicity (in words) [2, 9]: negligible toxicity
- cellular uptake by flow cytometry (in words) [3]: ability to enter cells
- internalization and localization by live-cell confocal microscopy (in words) [4]: a mixture of diffuse and punctate fluorescence

Compound: GSGSGR71-b-OEG26 (also: ROMP block copolymer, Arg block DP 71, OEG block DP 26) [GSGSGR, m ~60]
- cellular uptake by flow cytometry (in words) [3]: better intracellular penetration

Compound: N=C(N)NCCC[C@H](NC(=O)[C@H](CCCNC(=N)N)NC(=O)[C@H](CCCNC(=N)N)NC(=O)[C@H](CCC(N)=O)NC(=O)[C@H](CCCNC(=N)N)NC(=O)[C@H](CCCNC(=N)N)NC(=O)[C@H](CCCCN)NC(=O)[C@H](CCCCN)NC(=O)[C@H](CCCNC(=N)N)NC(=O)CNC(=O)[C@H](Cc1ccc(O)cc1)NC(=O)[C@@H](N)CCCCNC(=O)c1ccc2c(c1)C(=O)OC21c2ccc(O)cc2Oc2cc(O)ccc21)C(N)=O [Tat peptide]
- proteolysis by RP-HPLC after protease treatment (in words) [5]: complete consumption
- material remaining, of the starting concentration [6]: less than 10%

Compound: KLA6 [KLA full length, m ~5]
- LD50 [2, 9]: 12.5 µM

Compound: MT1-MMP (Homo sapiens)
- Km [7]: 11 µM
- kcat/Km [7]: 8670 M⁻¹ s⁻¹

Compound: GSGSGRR57-b-OEG13 (not fully specified; also: ROMP polymer backbone, 57 repeats of peptide, OEG block, 13 units) [GSGSGRR, m ~60]
- cytotoxicity (in words) ([2]; at concentrations up to 1 mM): No cytotoxicity
- cellular uptake by flow cytometry (in words) [3]: better intracellular penetration

Compound: KLA14 [KLA full length, m ~15]
- LD50 [2, 9]: 30 µM

Compound: R52-b-OEG20 [R control, m ~60]
- internalization and localization by live-cell confocal microscopy (in words) [4]: a mixture of diffuse and punctate fluorescence

Compound: GSGSG56-b-OEG28 [GSGSG, m ~60]
- cytotoxicity (in words) ([2]; at concentrations up to 1 mM): No cytotoxicity

Compound: K(5/6-Flu)RRRRRRRR-NH2 (K(fluorescein)RRRRRRRR-NH2) [Arg8 peptide, fluorescein-labeled canonical cell penetrating peptide Arg8]
- effect of pharmacological and thermal inhibition on flow cytometry readings [8]: only a small effect

Compound: GSGSGKK61-b-OEG30 [GSGSGKK, m ~60]
- cytotoxicity (in words) ([2]; at concentrations up to 1 mM): No cytotoxicity
